“Also recorded” adds a separate entry of the source.
Columns and labels:
ERK1 and ERK2 = assay: ERK activation, phospho-ERK Western blot; type: cell-based, human
Description: Serum-starved presenescent (passage 10, Pa 10) and near-senescent (passage 29, Pa 29) fibroblasts were treated with 30 μg/ml LPA for the indicated times. The level of phospho-ERK in the cytosolic fraction from each cell, as an indication of ERK activation, was measured by Western blot analysis employing anti-phospho-ERK antibody.
The expression levels of signaling proteins were examined by Western blot analysis, as described previously (Yeo et al., 2000a). Total cell lysates were prepared in a lysis buffer containing 50 mM Tris-HCl, pH 7.5, containing 150 mM NaCl, 2 mM EDTA, 1 mM EGTA, 1 mM Na3VO4, 10 mM NaF, 1 mM DTT, 1 mM PMSF, 25 μg/ml leupeptin, 25 μg/ml aprotinin, 5 mM benzamidine, and 1% Nonidet P-40. The protein concentrations of the lysates were determined using a BCA protein assay kit, as described by the protocol supplied by the manufacturer. Cell lysates containing equal amounts of protein were resolved by SDS-polyacrylamide gel electrophoresis and transferred onto Immobilon PVDF membranes. […] To examine the level of phospholipase D 1/2, the immunoprecipitated protein obtained using 10 μl of anti-phospholipase D 1 anti-sera (Box45, ESTP4) was analyzed by Western blot against polyclonal anti-phospholipase D 1 antibodies (1:20 dilution of NC STP4 anti-serum).

PKA = assay: measurement of protein kinase A activity (Kemptide, [γ-32P]ATP); type: cell-based, human; conditions: 30 μg/ml LPA
Description: FIG. 10 represents LPA-dependent PKA activity and CREB phosphorylation in presenescent and near-senescent fibroblasts. Subconfluent presenescent (passage 8, Pa 8) and near-senescent (passage 24, Pa 24) fibroblasts were serum-starved for 2 days and treated with 30 μg/ml LPA for the indicated times. The PKA activity (A) was determined in cell homogenates with kemptide and [γ^32P]ATP as substrates. The radioactivity incorporated into kemptide was measured by a beta-counter and the enzyme activity was calculated as pmol/min/mg protein. The data represents an average of triplicate experiments. The level of phospho-CREB (B) was measured by Western blot analysis using an anti-phospho-CREB antibody.
LPA-treated cells were harvested and homogenized in ice-cold homogenization buffer containing 0.25 M sucrose, 10 mM Tris-HCl, pH 7.5, 10 MM MgCl2, 2 mM EGTA, and protease inhibitors. Homogenates were centrifuged at 20,000×g at 4° C. for 20 min. Protein kinase A assays were performed as described previously (Yang et al., 1999). […] The paper was washed once with 0.75% phosphoric acid and the radioactivity incorporated into Kemptide was quantified on a scintillation counter (Model Tri-Carb 1600 CA, Packard Instrument Company). […] PKI-inhibitable kinase activity was calculated and the data were reported as percent of total PKA activity. […]

[1] = tested on: human diploid fibroblasts; assay: DNA synthesis, [3H]thymidine incorporation; type: cell-based
Description: FIG. 5 represents reduction of growth factor-induced thymidine incorporation in near-senescent fibroblasts. […] The amount of [^3H]thymidine incorporated into DNA over 4 hrs was measured as described. The data represents an average of 3 counts in cpm. A representative experiment of the three is presented in A. Fold increase over the untreated control was calculated and plotted in B.
FIG. 18 represents changes in LPA-induced thymidine incorporation and cell proliferation in near-senescent fibroblasts versus presenescent fibroblasts. Subconfluent presenescent (passage 8, Pa 8) and near-senescent (passage 24, Pa 24) fibroblasts were serum-starved for 2 days and treated with LPA (1-70 μg/ml) for 16 hrs. The amount of [^3H]thymidine incorporated into DNA over 4 hrs was measured as described. The data represents an average of 3 counts in cpm in each independent experiments. A representative experiment of the three is presented in A. Converted fold increase over the untreated control was calculated and plotted in B.
Quiescent cells were labeled with [^3H]thymidine (0.5 μCi/ml) for 4 hrs and the […] radioactive thymidine was removed by washing with PBS. DNA was precipitated with 10% TCA and lysed in 0.5N NaOH. The radioactivity in neutralized lysates was counted in a liquid scintillation cocktail.

phospholipase D (PLD) = assay: phosphatidylbutanol formation as an indication of phospholipase D activity; type: cell-based, human; conditions: passage 24 near-senescent cells vs presenescent; 0.5% 1-butanol, 20 min
Description: Subconfluent presenescent (passage 8: Pa 8) and near-senescent (passage 24: Pa 24) cells were serum-starved and labeled with [^3H]myristic acid overnight. […] A representative experiment of three performed in duplicate is presented.
Quiescent cells were labeled overnight with [^3H]myristic acid (1 μCi/ml) and then washed with PBS. Phosphatidylbutanol formation was measured as described by Yeo et al. (1994). Cells were preincubated with 0.5% (v/v) 1-butanol for 15 min and then treated with agonists for 20 min in the presence of 0.5% 1-butanol. Total lipids were extracted and separated by thin layer chromatography. The band of phosphatidylbutanol was scraped off the plates and its radioactivity was counted in a liquid scintillation cocktail.

lysophosphatidic acid [LPA]
level of phospho-ERK (ERK1 and ERK2; near-senescent HDF (passage 29), 30 μg/ml LPA): did not increase further | ERK1 and ERK2 activation (phospho-ERK) (ERK1 and ERK2; presenescent HDF (passage 10), 30 μg/ml LPA for 10-30 min): stimulated | PKA activity (PKA; near-senescent cells): increased | PKA activity (PKA; presenescent cells): decreased | fold increase of [3H]thymidine incorporation over untreated control, near-senescent vs presenescent ([1]; 50-70 μg/ml LPA): slightly higher | agonist-induced DNA synthesis ([3H]thymidine incorporation) in near-senescent cells vs presenescent ([1]; near-senescent cells (passage 24)): reduced but less so than PDGF; also recorded: reduced | concentration at which increase of [3H]thymidine incorporation is apparent ([1]; presenescent fibroblasts): 10 µg/mL | concentration at which increase of [3H]thymidine incorporation is maximal ([1]; presenescent fibroblasts): 50 to 70 µg/mL | reduction of PLD activity (phospholipase D (PLD)): ca. 20%

From patent publication US20060099568A1, “Signals and molecular species involved in senescence” (priority 2002, published 2006)
